Measurements as given in patent US20260109699A1, “AZOLE DERIVATIVES AS SHP2 INHIBITORS” (IRBM S.P.A., priority 2022, published 2026).

Legend:
[1] = Determination of brain penetration in SD rats; assay type: in vivo; settings: Sprague-Dawley (SD), rat; male SD rats, IV 0.2 mg/kg, unbound brain to plasma ratio at 8 h; read-out: Kpuu, brain
Method: Total brain levels, expressed as brain/plasma ratio (Kp,brain) were measured by Cbrain@8h/Cplasma@8h in SD rats after IV administration (see Pharmaceutical Research, Vol. 25, No. 8, August 2008 DOI: 10.1007/s11095-007-9502-2; Pharmaceutical Research (2022) 39:1321-1341 https://doi.org/10.1007/s11095-022-03246-6). Unbound fraction of each molecule in biological matrix was determined by in vitro plasma and brain binding assay. Kpuu, brain was calculated by the following equation: […]
In vitro plasma and brain binding assay was carried out on a RED (Rapid Equilibrium Dialysis) device. Unbound fraction (fu) of each molecule in the brain homogenate and plasma were calculated by the ratio of the buffer side response to the brain homogenate/plasma side response. An IV study design was used as the in vivo screening model to identify brain penetration of each molecule. Male naïve SD rats (n=3) were intravenously dosed with each molecule at 0.2 mg/kg in DMSO/Propylene Glycol/Water, 20:60:20 (v/v/v). At 0.083, 0.25, 0.5, 1, 2, 4, and 8 h post-dose plasma samples were collected via tail vein and brain tissue was harvested at the 8 h time point and homogenized in 3× volume of water. All samples were stored at ˜−80° C. prior to LC/MS/MS analysis. At the 8 h time point, the unbound brain to plasma ratios were generated to identify molecules with Kpuu, brain values>0.3 which is indicative of good passive brain penetration.

[2] = tested on: phospho-ERK1/2 (Thr202/Tyr204); assay: Phospho-ERK cellular assay; assay type: cell-based; settings: Homo sapiens; KYSE-520 cells, 2 h at 37° C, TR-FRET; read-out: pERK IC50
Summary of the method: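 KYSE-520 cells treated overnight-after-plating with serially diluted compounds for 2 h at 37° C, then lysed. Phospho-ERK1/2 measured by TR-FRET after overnight antibody incubation at rt; inhibition normalized between DMSO (0%) and no-cell (100%) wells, IC50 from four-parameter logistic fit.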

[3] = target: T1, recombinant SHP2 protein (AviTag-G4SG4S-SHP2(1-525)) (Homo sapiens, UniProt Q06124); assay: Binding kinetic assay by surface plasmon resonance (SPR); settings: for Residence time 1/koff SPR: 1/koff from SPR; for koff: Biacore T200, single cycle kinetic, 25° C, 1:1 Langmuir model
T1 construct: recombinant SHP2 protein (AviTag-G4SG4S-SHP2(1-525)); purchased VIVA Biotech Ltd (custom production)
T1 sequence (Q06124 1-525): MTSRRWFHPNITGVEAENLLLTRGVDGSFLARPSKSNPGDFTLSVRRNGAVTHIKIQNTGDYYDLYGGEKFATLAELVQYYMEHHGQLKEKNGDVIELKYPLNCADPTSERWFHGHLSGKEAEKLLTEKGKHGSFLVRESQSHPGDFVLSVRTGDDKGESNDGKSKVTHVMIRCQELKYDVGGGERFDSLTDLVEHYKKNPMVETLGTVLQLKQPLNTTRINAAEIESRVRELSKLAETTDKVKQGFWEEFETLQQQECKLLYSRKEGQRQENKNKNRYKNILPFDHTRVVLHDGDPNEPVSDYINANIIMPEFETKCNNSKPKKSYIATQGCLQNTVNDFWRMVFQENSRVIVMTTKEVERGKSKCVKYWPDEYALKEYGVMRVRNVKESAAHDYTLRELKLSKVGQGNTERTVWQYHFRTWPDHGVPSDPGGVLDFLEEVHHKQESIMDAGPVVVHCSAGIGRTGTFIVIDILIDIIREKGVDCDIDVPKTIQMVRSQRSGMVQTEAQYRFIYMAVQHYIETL
Method: A N-term biotinylated recombinant SHP2 protein (AviTag-G4SG4S-SHP2(1-525)) was custom produced by VIVA Biotech Ltd. Binding kinetic rate constants were measured by SPR, using a Biacore T200 instrument. The recombinant SHP2 protein was diluted at […] in HBS-P+ buffer, then captured on a series S streptavidin sensor chip up to 5000 RU. Binding of compounds was assessed by a single cycle kinetic procedure (SCK): compounds were diluted in HBS-EP+ supplemented with 20% DMSO (from 300 to 3.7 nM, 3 fold dilution), injected for 120 s over the ligand, then dissociation rate measured for 3600 s, at […] and 25° C. Sensorgrams were analysed by Biacore T200 evaluation software: binding rate constants (kon, koff) and affinity (KD) were calculated by curve filling according to a 1:1 Langmuir model. Each molecule was tested in triplicate on separate flow channels.

[4] = target: T2, SHP-2 enzyme (Met1-Leu525), SHP2wt (Homo sapiens, UniProt Q06124); assay: SHP2 inhibition enzymatic assay; assay type: biochemical; settings: 0.5 nM SHP-2 activated by 500 nM IRS1 peptide, 75 μM DiFMUP substrate
T2 construct: synthetized by Origene, Met1-Leu525, cat #TP750155; purchased Origene TP750155
T2 sequence (Q06124 1-525): T1 sequence (Q06124 1-525)
Summary of the method: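 Human SHP2 (Met1-Leu525, 0.5 nM) activated by 500 nM bis-phosphorylated IRS1 peptide, pre-incubated 30 min with compound, then 75 μM DiFMUP for 30 min at rt in HEPES pH 7.2, NaCl/KCl, EDTA, Tween-20, 5 mM DTT. Reaction quenched with bpV, fluorescence read; IC50 by four-parameter logistic fit.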

Row | SMILES | Kp uu at 8 h [1] | IC50 [2] [nM] | Residence time 1/koff SPR [3] [s] | koff [3] [s⁻¹] | IC50 [4] [nM]
1 | Cc1c(N2CCC3(CC2)Cn2nccc2[C@H]3N)nc(C)n(-c2cccc(Cl)c2Cl)c1=O (single isomer, unassigned) [Example 3] | > 0.3 | < 100 | 8065 | 0.000124 | ≤ 50
2 | N[C@@H]1c2ccnn2CC12CCN(c1cnc(Oc3cccc(Cl)c3Cl)cn1)CC2 [Example 2, (S)-1-(5-(2,3-dichlorophenoxy)pyrazin-2-yl)-4′H,6′H-spiro[piperidine-4,5′-pyrrolo[1,2-b]pyrazol]-4′-amine] | > 0.3 | 100 to 500 | 1944 | 0.000514 | ≤ 50
3 | N[C@@H]1c2ccnn2CC12CCN(c1cnc(Sc3cccc(-n4cccn4)c3Cl)cn1)CC2 [Example 10, (S)-1-(5-((2-chloro-3-(1H-pyrazol-1-yl)phenyl)thio)pyrazin-2-yl)-4′H,6′H-spiro[piperidine-4,5′-pyrrolo[1,2-b]pyrazol]-4′-amine] | > 0.3 | < 100 | 90909 | 1.1e-05 | ≤ 50
4 | Cc1c(F)ccc(Sc2cnc(N3CCC4(CC3)Cn3nccc3[C@H]4N)cn2)c1F [Example 45, (S)-1-(5-((2,4-difluoro-3-methylphenyl)thio)pyrazin-2-yl)-4′H,6′H-spiro[piperidine-4,5′-pyrrolo[1,2-b]pyrazol]-4′-amine] |  | < 100 | 12664 | 7.9e-05 | ≤ 50
5 | N[C@@H]1c2ccnn2CC12CCN(c1cnc(Sc3ccc(Cl)c4ncccc34)cn1)CC2 [Example 70, (S)-1-(5-((8-chloroquinolin-5-yl)thio)pyrazin-2-yl)-4′H,6′H-spiro[piperidine-4,5′-pyrrolo[1,2-b]pyrazol]-4′-amine] |  | < 100 |  |  | ≤ 50
6 | N[C@@H]1c2ccnn2CC12CCN(c1cnc(Sc3cccc(F)c3C(F)F)cn1)CC2 [Example 71, (S)-1-(5-((2-(difluoromethyl)-3-fluorophenyl)thio)pyrazin-2-yl)-4′H,6′H-spiro[piperidine-4,5′-pyrrolo[1,2-b]pyrazol]-4′-amine] |  | < 100 |  |  | ≤ 50
7 | N[C@@H]1c2ccnn2CC12CCN(c1cnc(Sc3ccccc3C(F)F)cn1)CC2 [Example 72, (S)-1-(5-((2-(difluoromethyl)phenyl)thio)pyrazin-2-yl)-4′H,6′H-spiro[piperidine-4,5′-pyrrolo[1,2-b]pyrazol]-4′-amine] |  | < 100 |  |  | ≤ 50
8 | N[C@@H]1c2ccnn2CC12CCN(c1cnc(Sc3ccc(OC(F)F)c4ncccc34)cn1)CC2 [Example 73, (S)-1-(5-((8-(difluoromethoxy)quinolin-5-yl)thio)pyrazin-2-yl)-4′H,6′H-spiro[piperidine-4,5′-pyrrolo[1,2-b]pyrazol]-4′-amine] |  | < 100 |  |  | ≤ 50
9 | N[C@@H]1c2ccnn2CC12CCN(c1cnc(Sc3cc(C(F)F)ccc3F)cn1)CC2 [Example 74, (S)-1-(5-((5-(difluoromethyl)-2-fluorophenyl)thio)pyrazin-2-yl)-4′H,6′H-spiro[piperidine-4,5′-pyrrolo[1,2-b]pyrazol]-4′-amine] |  | 100 to 500 |  |  | ≤ 50
10 | N[C@@H]1c2ccnn2CC12CCN(c1cnc(Sc3c(F)cccc3F)cn1)CC2 [Example 75, (S)-1-(5-((2,6-difluorophenyl)thio)pyrazin-2-yl)-4′H,6′H-spiro[piperidine-4,5′-pyrrolo[1,2-b]pyrazol]-4′-amine] |  | < 100 |  |  | ≤ 50
11 | N#Cc1ccc(Sc2cnc(N3CCC4(CC3)Cn3nccc3[C@H]4N)cn2)c(F)c1 [Example 76, (S)-4-((5-(4′-amino-4′H,6′H-spiro[piperidine-4,5′-pyrrolo[1,2-b]pyrazol]-1-yl)pyrazin-2-yl)thio)-3-fluorobenzonitrile] |  | < 100 |  |  | ≤ 50
12 | N[C@@H]1c2ccnn2CC12CCN(c1cnc(Sc3cc(F)c(F)cc3F)cn1)CC2 [Example 77, (S)-1-(5-((2,4,5-trifluorophenyl)thio)pyrazin-2-yl)-4′H,6′H-spiro[piperidine-4,5′-pyrrolo[1,2-b]pyrazol]-4′-amine] |  | 100 to 500 |  |  | ≤ 50
13 | N[C@@H]1c2ccnn2CC12CCN(c1cnc(Oc3ccccc3F)cn1)CC2 [Example 78, (S)-1-(5-(2-fluorophenoxy)pyrazin-2-yl)-4′H,6′H-spiro[piperidine-4,5′-pyrrolo[1,2-b]pyrazol]-4′-amine] |  | 100 to 500 |  |  | ≤ 50
14 | N[C@@H]1c2ccnn2CC12CCN(c1cnc(Oc3ccc(Cl)cc3F)cn1)CC2 [Example 79, (S)-1-(5-(4-chloro-2-fluorophenoxy)pyrazin-2-yl)-4′H,6′H-spiro[piperidine-4,5′-pyrrolo[1,2-b]pyrazol]-4′-amine] |  | 100 to 500 |  |  | ≤ 50
15 | N[C@@H]1c2ccnn2CC12CCN(c1cnc(Sc3cccc(F)c3-n3cccn3)cn1)CC2 [Example 80, (S)-1-(5-((3-fluoro-2-(1H-pyrazol-1-yl)phenyl)thio)pyrazin-2-yl)-4′H,6′H-spiro[piperidine-4,5′-pyrrolo[1,2-b]pyrazol]-4′-amine] |  | 100 to 500 |  |  | ≤ 50
16 | N[C@@H]1c2ccnn2CC12CCN(c1cnc(Sc3cccc(-n4cccn4)c3F)cn1)CC2 [Example 81, (S)-1-(5-((2-fluoro-3-(1H-pyrazol-1-yl)phenyl)thio)pyrazin-2-yl)-4′H,6′H-spiro[piperidine-4,5′-pyrrolo[1,2-b]pyrazol]-4′-amine] |  | < 100 |  |  | ≤ 50
17 | N[C@@H]1c2ccnn2CC12CCN(c1cnc(Sc3cccc(-n4ccnc4C(F)F)c3Cl)cn1)CC2 [Example 82, (S)-1-(5-((2-chloro-3-(2-(difluoromethyl)-1H-imidazol-1-yl)phenyl)thio)pyrazin-2-yl)-4′H,6′H-spiro[piperidine-4,5′-pyrrolo[1,2-b]pyrazol]-4′-amine] |  | < 100 |  |  | ≤ 50
18 | Cn1cc2ccc(Sc3cnc(N4CCC5(CC4)Cn4nccc4[C@H]5N)cn3)c(F)c2n1 [Example 83, (S)-1-(5-((7-fluoro-2-methyl-2H-indazol-6-yl)thio)pyrazin-2-yl)-4′H,6′H-spiro[piperidine-4,5′-pyrrolo[1,2-b]pyrazol]-4′-amine] |  | < 100 |  |  | ≤ 50
19 | Cn1cc2c(Cl)c(Sc3cnc(N4CCC5(CC4)Cn4nccc4[C@H]5N)cn3)ccc2n1 [Example 84, (S)-1-(5-((4-chloro-2-methyl-2H-indazol-5-yl)thio)pyrazin-2-yl)-4′H,6′H-spiro[piperidine-4,5′-pyrrolo[1,2-b]pyrazol]-4′-amine] |  | < 100 |  |  | ≤ 50
